Experimental data from the NIST ThermoML archive (doi:10.1021/je9005618).

Assay: refractive index (Na D-line) (dimensionless); xn = mol fraction of the nth substance listed
Details: 101 kPa, Liquid

CCn1cc[n+](C)c1.O=S(=O)([O-])C(F)(F)F [1-ethyl-3-methylimidazolium trifluoromethanesulfonate] + CCOC(C)=O
refractive index
Details | 288.15 K | 298.15 K | 308.15 K | 318.15 K | 328.15 K
x1 = 0.04887 | 1.38327 | 1.37802 | 1.37297 | 1.3691 | 1.3631
x1 = 0.1503 | 1.39622 | 1.39151 | 1.3881 | 1.38476 | 1.38129
x1 = 0.2004 | 1.40093 | 1.39666 | 1.3944 | 1.3917 | 1.38772
x1 = 0.2998 | 1.40907 | 1.40499 | 1.40234 | 1.39937 | 1.39558
x1 = 0.399 | 1.41507 | 1.41144 | 1.40854 | 1.40604 | 1.4031
x1 = 0.5006 | 1.42038 | 1.41682 | 1.41415 | 1.41137 | 1.40906
x1 = 0.5977 | 1.42469 | 1.42133 | 1.4186 | 1.41549 | 1.41251
x1 = 0.6974 | 1.42874 | 1.42566 | 1.42254 | 1.41963 | 1.41671
x1 = 0.7962 | 1.43118 | 1.42823 | 1.42528 | 1.42239 | 1.41954
x1 = 0.8474 | 1.43242 | 1.4295 | 1.42662 | 1.42376 | 1.42094
x1 = 0.9011 | 1.43367 | 1.43075 | 1.42792 | 1.42471 | 1.42195
x1 = 0.9491 | 1.43467 | 1.43182 | 1.42903 | 1.42624 | 1.42352

CCn1cc[n+](C)c1.O=S(=O)([O-])C(F)(F)F [1-ethyl-3-methylimidazolium trifluoromethanesulfonate] + COC(C)=O
refractive index
Details | 288.15 K | 298.15 K | 308.15 K | 318.15 K
x1 = 0.05083 | 1.37625 | 1.37116 | 1.3671 | 1.36334
x1 = 0.09991 | 1.38561 | 1.38057 | 1.37793 | 1.37521
x1 = 0.1515 | 1.39328 | 1.38873 | 1.38548 | 1.38291
x1 = 0.1998 | 1.39836 | 1.39419 | 1.39098 | 1.38871
x1 = 0.2997 | 1.40796 | 1.40429 | 1.40087 | 1.39857
x1 = 0.4003 | 1.41462 | 1.4112 | 1.40804 | 1.40487
x1 = 0.4958 | 1.42026 | 1.41695 | 1.41367 | 1.41049
x1 = 0.595 | 1.42444 | 1.42123 | 1.41831 | 1.41533
x1 = 0.6962 | 1.42797 | 1.42488 | 1.42201 | 1.41907
x1 = 0.7954 | 1.43089 | 1.42794 | 1.4251 | 1.42226
x1 = 0.8385 | 1.43234 | 1.42944 | 1.42649 | 1.42364
x1 = 0.8977 | 1.43347 | 1.43061 | 1.42771 | 1.42488
x1 = 0.9466 | 1.43451 | 1.4317 | 1.4289 | 1.42618
